# Where two headings read alike, the source gives them in different places. Starred links: 1 amine or outer side, 2 acyl side, 3 side chain; linkers in the order of their positions; H or OH if unused. Non-standard residues stand in square brackets, D forms with d. Residues, ends and D or L forms follow the SMILES beside them. *: point of attachment. X1 = Cc1cc(F)cc(-c2cnc(NCCNC(=O)CCOCCC(=O)*)c(-c3nc4ccc(Cl)cc4[nH]3)c2N2CCC(N)CC2)c1; Dolaproine = CO[C@@H]([C@@H]1CCCN1)[C@@H](C)C(=O)O; Dil = CC[C@H](C)[C@H](NC)[C@@H](CC(=O)O)OC; PABC = O=C(OCc1ccc(N[*:1])cc1)[*:2]; X2 = C[C@@H](N*)[C@@H](O)c1ccccc1; Cit = NC(=O)NCCC[C@H](N)C(=O)O; NMeV = CN[C@H](C(=O)O)C(C)C
# Key:
# [1] = tested on: NCI-H524 (ATCC) human small cell lung cancer cells; assay type: cell-based
# Method in brief: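 NCI-H524 cells (5,000/well) were exposed 24 h after plating to SMDC for 2 h, 11-point two-fold series from 1 uM. After washout they grew a further 70 h. Proliferation was read by CellTiter-Glo luminescence, % inhibition taken vs untreated control, and IC50 fitted by four-parameter nonlinear regression.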
# [2] = target: T1, SST2 (Homo sapiens, UniProt P30874); test: PathHunter CHO-K1 SST2 internalization assay; assay type: cell-based; conditions: PathHunter CHO-K1 SST2, 90 min; read-out: Internalization EC50
# T1 construct: host or cells: PathHunter CHO-K1 SST2 cells
# T1 sequence (P30874 whole entry): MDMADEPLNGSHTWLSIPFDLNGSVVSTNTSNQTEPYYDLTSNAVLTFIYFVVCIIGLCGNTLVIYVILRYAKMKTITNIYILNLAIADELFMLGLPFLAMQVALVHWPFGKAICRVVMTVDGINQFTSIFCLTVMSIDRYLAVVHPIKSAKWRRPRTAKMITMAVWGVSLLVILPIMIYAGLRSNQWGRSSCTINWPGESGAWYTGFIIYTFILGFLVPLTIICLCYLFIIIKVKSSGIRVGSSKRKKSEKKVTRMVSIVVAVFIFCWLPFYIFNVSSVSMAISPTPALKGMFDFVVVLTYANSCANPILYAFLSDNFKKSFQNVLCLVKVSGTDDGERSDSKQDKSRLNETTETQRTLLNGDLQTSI
# Method in brief: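 PathHunter CHO-K1 SST2 cells, seeded and grown 48 h, were exposed to 11-point 1:3 dilutions of SMDC (top final 10 uM) for 90 min at 37 C, 5% CO2. Beta-Glo luminescence was read after 60 min at room temperature. Background-corrected duplicate means were fitted by four-parameter nonlinear regression to give IC50.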
# [3] = target: T2, human somatostatin receptor subtype 2 (Homo sapiens, UniProt P30874); test: Functional cAMP assay for SSTR2 agonists (HTRF) in CHO-K1 cells; assay type: cell-based; conditions: CHO-K1 cells stably expressing human SST2, 20 min; read-out: hSST2 cAMP Avg EC50
# T2 construct: expressed in transfected cells
# T2 sequence (P30874 whole entry): as above
# Method in brief: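 CHO-K1 cells stably expressing receptor, plated 4 days before assay, treated 20 min at 37° C. with compound (typically 0-10,000 nM final) plus IBMX and 1.6 μM NKH477 to raise cAMP. HTRF read, 665/620 nm ratio; cAMP from standard curve, EC50 fitted.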
# [4] = H524 tumor biodistribution model: tumor and plasma levels of SMDC and MMAE by LC/MS-MS; assay type: in vivo, female Athymic nude mice; conditions: H524 tumor bearing nude mice
# Description: In this example, 5 million H524 (Small Cell Lung Cancer) cells in 1:1 Matrigel: cold Media (RPMI1640) were injected into the subcutaneous (SQ) flank of female Athymic nude mice. Tumor volumes and body weights were measured twice a week. The tumors were allowed to grow until they reached 250-500 mm^3 in size before animals were randomized into groups (n=3/time point). Animals were injected intravenously with a SMDC of the present invention at a single dose of 500 nmol/kg. […] BLQ: Below Limit of Quantitation.
# [5] = MMAE level 4 h after 500 nmol/kg IV of the conjugate
# [6] = MMAE level 24 h after 500 nmol/kg IV of the conjugate
# [7] = MMAE level 72 h after 500 nmol/kg IV of the conjugate
# [8] = MMAE level 168 h after 500 nmol/kg IV of the conjugate
# [9] = MMAE level 1 h after 500 nmol/kg IV of the conjugate
structure (smiles),measurement,setting,value
CC[C@H](C)[C@@H]([C@@H](CC(=O)N1CCC[C@H]1[C@H](OC)[C@@H](C)C(=O)N[C@H](C)[C@@H](O)c1ccccc1)OC)N(C)C(=O)[C@@H](NC(=O)[C@H](C(C)C)N(C)C(=O)OCc1ccc(NC(=O)[C@H](CCCNC(N)=O)NC(=O)[C@@H](NC(=O)CCOCCC(=O)NCCNc2ncc(-c3cc(C)cc(F)c3)c(N3CCC(N)CC3)c2-c2nc3ccc(Cl)cc3[nH]2)C(C)C)c(O[C@@H]2O[C@H](C(=O)O)[C@@H](O)[C@H](O)[C@H]2O)c1)C(C)C [Compound 61],EC50,[1]; 2 h,33.2 nM
same,EC50,[2],12.7 nM
same,EC50,[3],0.11 nM
same,Conjugate Plasma (nM),[4]; 72 h after 500 nmol/kg IV,BLQ
same,Conjugate Tumor (nM),[4]; 72 h after 500 nmol/kg IV,BLQ
same,Conjugate Plasma (nM),[4]; 168 h after 500 nmol/kg IV,BLQ
same,Conjugate Tumor (nM),[4]; 168 h after 500 nmol/kg IV,BLQ
same,MMAE Plasma,[4]; [5],0.754 nM
same,MMAE Tumor,[4]; [5],75.0 nM
same,MMAE Tumor,[4]; [6],320 nM
same,MMAE Plasma (nM),[4]; [7],BLQ
same,MMAE Tumor,[4]; [7],267 nM
same,MMAE Plasma (nM),[4]; [8],BLQ
same,MMAE Tumor,[4]; [8],97.8 nM
same,level at time molar at 4 h,"[4]; female, Athymic nude, mouse, plasma, 4 h after 500 nmol/kg IV, read-out: Conjugate Plasma",1100 nM
same,level at time molar at 24 h,"[4]; female, Athymic nude, mouse, plasma, 24 h after 500 nmol/kg IV, read-out: Conjugate Plasma",56.5 nM
same,level at time molar at 4 h,"[4]; female, Athymic nude, mouse, 4 h after 500 nmol/kg IV, read-out: Conjugate Tumor",181 nM
same,level at time molar at 24 h,"[4]; female, Athymic nude, mouse, 24 h after 500 nmol/kg IV, read-out: Conjugate Tumor",37 nM
CC[C@H](C)[C@@H]([C@@H](CC(=O)N1CCC[C@H]1[C@H](OC)[C@@H](C)C(=O)N[C@H](C)[C@@H](O)c1ccccc1)OC)N(C)C(=O)[C@@H](NC(=O)[C@H](C(C)C)N(C)C(=O)OCc1ccc(NC(=O)[C@H](C)NC(=O)[C@@H](NC(=O)CCOCCC(=O)NCCNc2ncc(-c3cc(C)cc(F)c3)c(N3CCC(N)CC3)c2-c2nc3ccc(Cl)cc3[nH]2)C(C)C)c(O[C@@H]2O[C@H](C(=O)O)[C@@H](O)[C@H](O)[C@H]2O)c1)C(C)C [Compound 68],EC50,"[1]; 2 h treatment, washout, additional 70 h, read-out: H524 EC50",11.2 nM
same,level at time molar at 24 h,"[4]; 1 h after 500 nmol/kg IV, read-out: Conjugate Plasma",1388 nM
same,level at time molar at 24 h,"[4]; 1 h after 500 nmol/kg IV, read-out: Conjugate Tumor",212 nM
same,level at time molar at 24 h,"[4]; 4 h after 500 nmol/kg IV, read-out: Conjugate Plasma",446 nM
same,level at time molar at 24 h,"[4]; 4 h after 500 nmol/kg IV, read-out: Conjugate Tumor",91.3 nM
same,level at time molar at 24 h,"[4]; 24 h after 500 nmol/kg IV, read-out: Conjugate Plasma",36.9 nM
same,level at time molar at 24 h,"[4]; 24 h after 500 nmol/kg IV, read-out: Conjugate Tumor",15.5 nM
same,Conjugate Tumor (nM),[4]; 72 h after 500 nmol/kg IV,BLQ
same,level at time molar at 24 h,"[4]; 72 h after 500 nmol/kg IV, read-out: Conjugate Plasma",0.68 nM
same,MMAE Plasma,[4]; [9],8.82 nM
same,MMAE Tumor,[4]; [9],17.5 nM
same,MMAE Plasma,[4]; [5],1.94 nM
same,MMAE Tumor,[4]; [5],197 nM
same,MMAE Plasma,[4]; [6],0.416 nM
same,MMAE Tumor,[4]; [6],299 nM
same,MMAE Plasma (nM),[4]; [7],BLQ
same,MMAE Tumor,[4]; [7],231 nM
COc1cc2cc(c1Cl)N(C)C(=O)CC(OC(=O)[C@@H](C)N(C)C(=O)CCSSCCNC(=O)CNC(=O)C[C@@H](N)C(=O)NCCNc1ncc(-c3cc(C)cc(F)c3)c(N3CCC(N)CC3)c1-c1nc3ccc(Cl)cc3[nH]1)[C@]1(C)OC1[C@@H](C)C1C[C@@](O)(NC(=O)O1)[C@H](OC)/C=C/C=C(\C)C2 (some centres unmarked) [Compound 13],EC50,[1]; 2 h,41.8 nM
same,EC50,[2],6.3 nM
same,EC50,[3],0.075 nM
CC[C@H](C)[C@@H]([C@@H](CC(=O)N1CCC[C@H]1[C@H](OC)[C@@H](C)C(=O)N[C@H](C)[C@@H](O)c1ccccc1)OC)N(C)C(=O)[C@@H](NC(=O)[C@H](C(C)C)N(C)C(=O)OCc1ccc(NC(=O)[C@H](CCCNC(N)=O)NC(=O)[C@@H](NC(=O)[C@H](CCC(=O)O)NC(=O)CCOCCOCCOCCOCCC(=O)NCCNc2ncc(-c3cc(C)cc(F)c3)c(N3CCC(N)CC3)c2-c2nc3ccc(Cl)cc3[nH]2)C(C)C)cc1)C(C)C [Compound 52],EC50,[1]; 2 h,48 nM
same,EC50,[2],9.1 nM
same,EC50,[3],0.24 nM
CC[C@H](C)[C@@H]([C@@H](CC(=O)N1CCC[C@H]1[C@H](OC)[C@@H](C)C(=O)N[C@H](C)[C@@H](O)c1ccccc1)OC)N(C)C(=O)[C@@H](NC(=O)[C@H](C(C)C)N(C)C(=O)OCc1ccc(NC(=O)[C@H](C)NC(=O)[C@@H](NC(=O)CCOCCC(=O)N[C@@H](CS(=O)(=O)O)C(=O)NCCNc2ncc(-c3cc(C)cc(F)c3)c(N3CCC(N)CC3)c2-c2nc3ccc(Cl)cc3[nH]2)C(C)C)c(O[C@@H]2O[C@H](CO)[C@@H](O)[C@H](O)[C@H]2O)c1)C(C)C [Compound 66],EC50,[1]; 2 h,300 nM
same,EC50,[2],15 nM
same,EC50,[3],0.13 nM
CC[C@H](C)[C@@H]([C@@H](CC(=O)N1CCC[C@H]1[C@H](OC)[C@@H](C)C(=O)N[C@H](C)[C@@H](O)c1ccccc1)OC)N(C)C(=O)[C@@H](NC(=O)[C@H](C(C)C)N(C)C(=O)OCc1ccc(NC(=O)[C@H](CCCNC(N)=O)NC(=O)[C@@H](NC(=O)CCOCCNC(=O)CN2CCN(CC(=O)O)CCN(CC(=O)NCCNc3ncc(-c4cc(C)cc(F)c4)c(N4CCC(N)CC4)c3-c3nc4ccc(Cl)cc4[nH]3)CC2)C(C)C)cc1)C(C)C [Compound 37],EC50,[1]; 2 h,102 nM
same,EC50,[2],13.7 nM
same,EC50,[3],0.071 nM
CC[C@H](C)[C@@H]([C@@H](CC(=O)N1CCC[C@H]1[C@H](OC)[C@@H](C)C(=O)N[C@H](C)[C@@H](O)c1ccccc1)OC)N(C)C(=O)[C@@H](NC(=O)[C@H](C(C)C)N(C)C(=O)OCc1ccc(NC(=O)[C@H](C)NC(=O)[C@@H](NC(=O)CCNCCC(=O)NCCNc2ncc(-c3cc(C)cc(F)c3)c(N3CCC(N)CC3)c2-c2nc3ccc(Cl)cc3[nH]2)C(C)C)c(O[C@@H]2O[C@H](C(=O)O)[C@@H](O)[C@H](O)[C@H]2O)c1)C(C)C [Compound 155],EC50,[1]; 2 h,71 nM
same,EC50,[2],29 nM
same,EC50,[3],0.24 nM
CC[C@H](C)[C@@H]([C@@H](CC(=O)N1CCC[C@H]1[C@H](OC)[C@@H](C)C(=O)N[C@H](C)[C@@H](O)c1ccccc1)OC)N(C)C(=O)[C@@H](NC(=O)[C@H](C(C)C)N(C)C(=O)OCc1ccc(O[C@@H]2O[C@H](C(=O)O)[C@@H](O)[C@H](O)[C@H]2O)c(NC(=O)[C@H](CCCNC(N)=O)NC(=O)[C@@H](NC(=O)CCOCCC(=O)NCCNc2ncc(-c3cc(C)cc(F)c3)c(N3CCC(N)CC3)c2-c2nc3ccc(Cl)cc3[nH]2)C(C)C)c1)C(C)C [Compound 147],EC50,[1]; 2 h,3.2 nM
same,EC50,[2],2.5 nM
same,EC50,[3],0.14 nM
CC[C@H](C)[C@@H]([C@@H](CC(=O)N1CCC[C@H]1[C@H](OC)[C@@H](C)C(=O)N[C@H](C)[C@@H](O)c1ccccc1)OC)N(C)C(=O)[C@@H](NC(=O)[C@H](C(C)C)N(C)C(=O)OCc1ccc(NC(=O)[C@H](C)NC(=O)[C@@H](NC(=O)CCOCCC(=O)NCCNc2ncc(-c3cc(C)cc(F)c3)c(N3CCC(N)CC3)c2-c2nc3ccc(Cl)cc3[nH]2)C(C)C)c(O[C@@H]2O[C@H](CO)[C@@H](O)[C@H](O)[C@H]2O)c1)C(C)C [Compound 131],EC50,[1]; 2 h,4 nM
same,EC50,[2],5.2 nM
same,EC50,[3],0.13 nM
CC[C@H](C)[C@@H]([C@@H](CC(=O)N1CCC[C@H]1[C@H](OC)[C@@H](C)C(=O)N[C@H](C)[C@@H](O)c1ccccc1)OC)N(C)C(=O)[C@@H](NC(=O)[C@H](C(C)C)N(C)C(=O)OCc1ccc(NC(=O)[C@H](CCCNC(N)=O)NC(=O)[C@@H](NC(=O)CNC(=O)[C@H](CCC(=O)O)NC(=O)[C@H](CCC(=O)O)NC(=O)CCOCCC(=O)NCCNc2ncc(-c3cc(C)cc(F)c3)c(N3CCC(N)CC3)c2-c2nc3ccc(Cl)cc3[nH]2)C(C)C)cc1)C(C)C [Compound 111] (X1-EEGV[Cit][PABC][NMeV]V[Dil][Dolaproine]-X2),EC50,[1]; 2 h,360 nM
same,EC50,[2],22 nM
same,EC50,[3],1.2 nM
CC[C@H](C)[C@@H]([C@@H](CC(=O)N1CCC[C@H]1[C@H](OC)[C@@H](C)C(=O)N[C@H](C)[C@@H](O)c1ccccc1)OC)N(C)C(=O)[C@@H](NC(=O)[C@H](C(C)C)N(C)C(=O)OCc1ccc(NC(=O)[C@H](CCCNC(N)=O)NC(=O)[C@@H](NC(=O)CCCCC(=O)NCCNc2ncc(-c3cc(C)cc(F)c3)c(N3CCC(N)CC3)c2-c2nc3ccc(Cl)cc3[nH]2)C(C)C)c(O[C@@H]2O[C@H](C(=O)O)[C@@H](O)[C@H](O)[C@H]2O)c1)C(C)C [Compound 133],EC50,[1]; 2 h,34 nM
same,EC50,[2],6 nM
same,EC50,[3],0.11 nM

# Reference: patent publication US12134610B2, “Somatostatin subtype-2 receptor (SST2R) targeted therapeutics and uses thereof” (priority 2022, dated 2024)
